Assay results as given in article PMC7143535, “Synthesis, Pharmacological and Structural Characterization of Novel Conopressins from Conus miliaris” (Marine Drugs, 2020).
Residues, ends and D or L forms follow the SMILES beside them.

What was measured:
[1] = biological target: T1, human vasopressin-1b receptor (hV1bR) (Homo sapiens, UniProt P47901); assay: cell-based; type: cell-based
T1 construct: host or cells: COS-1
T1 sequence (P47901 1-424): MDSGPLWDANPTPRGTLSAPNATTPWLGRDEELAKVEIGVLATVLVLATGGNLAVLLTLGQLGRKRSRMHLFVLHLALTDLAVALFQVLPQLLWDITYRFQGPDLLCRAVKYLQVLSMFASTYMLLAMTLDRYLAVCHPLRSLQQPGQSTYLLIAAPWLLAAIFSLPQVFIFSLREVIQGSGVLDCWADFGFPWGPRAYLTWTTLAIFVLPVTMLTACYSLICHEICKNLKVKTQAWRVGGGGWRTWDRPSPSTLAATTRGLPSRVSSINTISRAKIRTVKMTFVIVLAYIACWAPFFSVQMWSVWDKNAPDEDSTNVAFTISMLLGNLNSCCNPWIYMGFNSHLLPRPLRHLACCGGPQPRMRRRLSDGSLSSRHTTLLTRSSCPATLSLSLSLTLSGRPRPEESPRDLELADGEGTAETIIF

[2] = biological target: T2, human vasopressin-1a receptor (hV1aR) (Homo sapiens, UniProt P37288); assay: cell-based
T2 construct: host or cells: COS-1

[3] = biological target: T3, human vasopressin2 receptor (hV2R) (Homo sapiens, UniProt P30518); assay: cell-based
T3 construct: host or cells: COS-1

[4] = biological target: T4, human oxytocin receptor (hOTR) (Homo sapiens, UniProt P30559); assay: cell-based; type: cell-based
T4 construct: host or cells: COS-1
T4 sequence (P30559 1-389): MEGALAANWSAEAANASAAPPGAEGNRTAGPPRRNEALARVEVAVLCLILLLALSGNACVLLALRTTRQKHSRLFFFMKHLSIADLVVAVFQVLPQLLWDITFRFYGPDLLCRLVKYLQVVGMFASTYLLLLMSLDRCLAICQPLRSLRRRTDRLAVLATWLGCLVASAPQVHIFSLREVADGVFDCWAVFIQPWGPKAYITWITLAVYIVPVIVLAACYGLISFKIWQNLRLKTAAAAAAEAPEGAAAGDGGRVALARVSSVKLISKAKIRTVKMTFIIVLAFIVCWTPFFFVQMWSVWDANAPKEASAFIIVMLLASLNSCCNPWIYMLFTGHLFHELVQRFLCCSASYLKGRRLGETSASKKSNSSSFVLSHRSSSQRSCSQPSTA

[5] = biological target: zebrafish vasopressin2 receptor (ZF V2R); type: cell-based, zebrafish (Danio rerio); settings: for EC50: read-out: Mean EC50 ZF V2R
[6] = biological target: T5, zebrafish oxytocin/isotocin receptor (ZF oxy/isoR) (Danio rerio, UniProt E4W699); assay: cell-based; type: cell-based
T5 construct: host or cells: COS-1
T5 sequence (E4W699 1-388): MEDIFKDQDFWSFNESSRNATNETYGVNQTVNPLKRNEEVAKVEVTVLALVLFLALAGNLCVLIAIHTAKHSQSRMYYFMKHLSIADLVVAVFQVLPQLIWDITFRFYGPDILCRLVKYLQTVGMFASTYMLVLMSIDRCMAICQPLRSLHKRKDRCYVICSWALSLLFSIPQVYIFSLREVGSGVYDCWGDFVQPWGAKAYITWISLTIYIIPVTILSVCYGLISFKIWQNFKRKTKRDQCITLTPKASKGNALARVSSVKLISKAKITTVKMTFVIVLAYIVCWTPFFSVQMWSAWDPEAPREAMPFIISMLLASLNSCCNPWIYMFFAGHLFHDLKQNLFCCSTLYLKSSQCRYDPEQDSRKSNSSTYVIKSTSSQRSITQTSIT

[7] = biological target: zebrafish vasopressin1-a2 receptor (ZF V1a2R); type: cell-based, zebrafish (Danio rerio)
[8] = biological target: zebrafish vasopressin1-a1 receptor (ZF V1a1R); type: cell-based, zebrafish (Danio rerio)

T3 sequence (P30518 whole entry): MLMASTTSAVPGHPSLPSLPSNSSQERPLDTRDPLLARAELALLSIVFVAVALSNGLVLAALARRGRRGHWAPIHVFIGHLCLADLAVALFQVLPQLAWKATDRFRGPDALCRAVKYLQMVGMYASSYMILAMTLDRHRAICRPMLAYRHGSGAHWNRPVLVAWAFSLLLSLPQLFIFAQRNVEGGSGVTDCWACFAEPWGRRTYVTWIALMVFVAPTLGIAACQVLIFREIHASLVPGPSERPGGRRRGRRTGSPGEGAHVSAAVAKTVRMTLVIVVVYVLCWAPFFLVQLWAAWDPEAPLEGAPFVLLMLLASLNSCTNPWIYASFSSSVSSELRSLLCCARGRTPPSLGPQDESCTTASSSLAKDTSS
T2 sequence (P37288 whole entry): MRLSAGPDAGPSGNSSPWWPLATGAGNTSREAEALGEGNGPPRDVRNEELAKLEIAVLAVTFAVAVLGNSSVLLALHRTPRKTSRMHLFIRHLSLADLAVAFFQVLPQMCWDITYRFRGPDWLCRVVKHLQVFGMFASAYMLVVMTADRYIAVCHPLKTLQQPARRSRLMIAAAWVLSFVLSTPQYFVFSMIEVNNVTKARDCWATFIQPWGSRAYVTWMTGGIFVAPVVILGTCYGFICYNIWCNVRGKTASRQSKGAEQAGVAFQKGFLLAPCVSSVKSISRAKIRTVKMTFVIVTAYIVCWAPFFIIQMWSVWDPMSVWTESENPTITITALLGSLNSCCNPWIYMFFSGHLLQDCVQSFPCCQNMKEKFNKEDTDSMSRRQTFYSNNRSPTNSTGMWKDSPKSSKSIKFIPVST

Row | Structure (SMILES) | EC50 [1] | response of control at hV1b (weak and partial agonist) [1] | EC50 [2] | EC50 [3] | EC50 [4] | EC50 [5] | EC50 [6] | EC50 [7] | Selectivity hV1bR [1] | Selectivity hV1aR [2] | Selectivity hV2R [3] | response of control at hOTR (partial agonist) [4] | EC50 [8] | Selectivity ZF V1a1R [8] | Selectivity ZF V2R [5] | Selectivity ZF oxy [6] | response of control at ZF oxy/isoR (partial agonist) [6] | Selectivity ZF V1a2R [7] | response of control at ZF V1a2R (partial agonist) [7]
1 | NC(=O)C[C@@H]1NC(=O)CNC(=O)[C@@H]2CCCN2C(=O)[C@H](Cc2ccccc2)NC(=O)[C@@H](N)CSSC[C@@H](C(=O)N2CCC[C@H]2C(=O)N[C@@H](CC(=O)O)C(=O)N[C@@H](CO)C(N)=O)NC1=O [Con-M1am, conopressin-M1] (HELM PEPTIDE1{C.F.P.G.N.C.P.D.S.[am]}$PEPTIDE1,PEPTIDE1,1:R3-6:R3$$$V2.0) | 38.2 µM | 26% | > 100 µM | > 100 µM | > 100 µM | > 100 µM | > 100 µM | > 100 µM |  |  |  |  |  |  |  |  |  |  | 
2 | CC[C@H](C)[C@@H]1NC(=O)[C@H](Cc2ccccc2)NC(=O)[C@@H](N)CSSC[C@@H](C(=O)N2CCC[C@H]2C(=O)N[C@@H](CCCCN)C(=O)NCC(N)=O)NC(=O)[C@H](CC(N)=O)NC(=O)[C@H](CCCNC(=N)N)NC1=O [Con-G, conopressin-G] (HELM PEPTIDE1{C.F.I.R.N.C.P.K.G.[am]}$PEPTIDE1,PEPTIDE1,1:R3-6:R3$$$V2.0) | 0.052 µM |  | 0.123 µM | 0.3 µM |  |  |  |  | ZF V1a1R (x42.9) > ZF V1a2R (x10.3) > hV1bR (x8.8) > ZF V2R (x7.5) > hV1aR (x3.7) > hV2R (x1.5) > ZF oxy (x1.3) > hOTR | ZF V1a1R (x42.9) > ZF V1a2R (x10.3) > hV1bR (x8.8) > ZF V2R (x7.5) > hV1aR (x3.7) > hV2R (x1.5) > ZF oxy (x1.3) > hOTR | ZF V1a1R (x42.9) > ZF V1a2R (x10.3) > hV1bR (x8.8) > ZF V2R (x7.5) > hV1aR (x3.7) > hV2R (x1.5) > ZF oxy (x1.3) > hOTR | 28% | 0.01 µM | ZF V1a1R (x42.9) > ZF V1a2R (x10.3) > hV1bR (x8.8) > ZF V2R (x7.5) > hV1aR (x3.7) > hV2R (x1.5) > ZF oxy (x1.3) > hOTR | ZF V1a1R (x42.9) > ZF V1a2R (x10.3) > hV1bR (x8.8) > ZF V2R (x7.5) > hV1aR (x3.7) > hV2R (x1.5) > ZF oxy (x1.3) > hOTR | ZF V1a1R (x42.9) > ZF V1a2R (x10.3) > hV1bR (x8.8) > ZF V2R (x7.5) > hV1aR (x3.7) > hV2R (x1.5) > ZF oxy (x1.3) > hOTR | 62% | ZF V1a1R (x42.9) > ZF V1a2R (x10.3) > hV1bR (x8.8) > ZF V2R (x7.5) > hV1aR (x3.7) > hV2R (x1.5) > ZF oxy (x1.3) > hOTR | 69%
3 | CC(C)C[C@@H]1NC(=O)[C@H](Cc2ccccc2)NC(=O)[C@@H](N)CSSC[C@@H](C(=O)N2CCC[C@H]2C(=O)N[C@@H](CC(=O)O)C(=O)N[C@@H](CO)C(N)=O)NC(=O)[C@H](CC(N)=O)NC(=O)CNC1=O [Con-M2am, conopressin-M2] (HELM PEPTIDE1{C.F.L.G.N.C.P.D.S.[am]}$PEPTIDE1,PEPTIDE1,1:R3-6:R3$$$V2.0) | > 100 µM |  | > 100 µM | > 100 µM | > 100 µM | 1.72 µM | > 100 µM | > 100 µM |  |  |  |  | > 100 µM |  |  |  |  |  | 
